Earlier results, collected in patent publication US20240245633A1, “ROR Gamma Agonists as Enhancers of Protective Immunity” (University of Florida Research Foundation, Incorporated, priority 2015, published 2024).

Target: T1, Gal4-RORγ (Homo sapiens, UniProt P51449)
T1 sequence (P51449 269-508 limits assumed): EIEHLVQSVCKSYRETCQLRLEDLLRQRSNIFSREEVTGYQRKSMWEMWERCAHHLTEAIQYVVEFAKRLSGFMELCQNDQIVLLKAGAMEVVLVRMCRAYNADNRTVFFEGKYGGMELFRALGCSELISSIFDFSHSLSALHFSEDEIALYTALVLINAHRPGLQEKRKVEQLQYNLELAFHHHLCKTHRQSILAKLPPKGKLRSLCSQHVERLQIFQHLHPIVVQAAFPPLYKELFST
Set-up: RORγt activity after pre-treatment; fold induction of reporter gene expression; other: single concentration 30 μM; induction of luciferase expression at highest concentration of the concentration response curve; other: 30 μM, 2 μM urs; luciferase reporter gene expression
Settings: recently identified putative endogenous agonist; cited from earlier work

## CC(C)=CCC[C@@H](C)[C@H]1CC[C@H]2[C@@H]3CC=C4C[C@@H](O)CC[C@]4(C)[C@H]3CC[C@]12C [desmosterol]
  restoring RORγt activity in the presence of ursolic acid: capable of restoring RORγt activity in the presence of ursolic acid
